From patent publication US5965088A, “Method for providing rapid disinfection of contact lenses” (priority 1997, dated 1999)
Like-named read-outs stand apart in the source and are kept apart here.

System: Candida albicans (ATCC 10231)
Test: Antimicrobial efficacy (stand-alone log reduction), C. albicans
Assay type: cell-based
Settings: for log reduction at 4 ppm / log reduction at 4 µg/mL: Candida albicans; for log reduction at 4 µg/mL: 4.0 ppm alexidine in ReNu MPS; for Log Reduction C. albicans: PAPB 0.0
Procedure: This Example illustrates the microbiocidal efficacy of solutions according to the present invention. The antimicrobial efficacy of each of various compositions for the chemical disinfection of contact lenses was evaluated. Microbial challenge inoculums were prepared using Pseudomonas aeruginosa (ATCC 9027), Staphylococcus aureus (ATCC 6538), Serratia marcescens (ATCC 13880), Candida albicans (ATCC 10231), and Fusarium solani (ATCC 36031). The test organisms were cultured on appropriate agar and the cultures were harvested using sterile DPBST (Dulbecco's Phosphate Buffered Saline plus 0.05% w/v polysorbate 80) or a suitable diluent and transferred to a suitable vessel. Spore suspensions were filtered through sterile glass wool to remove hyphal fragments. Serratia marcescens, as appropriate, was filtered (eg., through a 1.2 μ filter) to clarify the suspension. After harvesting, the suspension was centrifuged at no more than 5000× g for a maximum of 30 minutes at 20-25° C. The supernatant was poured off and resuspended in DPBST or other suitable diluent. The suspension was centrifuged a second time, and resuspended in DPBST or other suitable diluent. All challenge bacterial and fungal cell suspensions were adjusted with DPBST or other suitable diluent to 1×10^7 -10^8 cfu/mL. The appropriate cell concentration may be estimated by measuring the turbidity of the suspension, for example using a spectrophotometer at a preselected wavelength, for example 490 nm. One tube was prepared containing a minimum of 10 mL of test solution per challenge organism. Each tube of the solution to be tested was inoculated with a suspension of the test organism sufficient to provide a final count of 1.0×10^5 -10^6 cfu/mL, the volume of the inoculum not exceeding 1% of the sample volume. Dispersion of the inoculum was ensured by vortexing the sample for at least 15 seconds. The inoculated product was stored at 10-25° C. Aliquots in the amount of 1.0 mL were taken of the inoculated product for determination of viable counts after certain time periods of disinfection. The time points for the bacteria were 25, 50, 75, and 100% of the minimum disinfection time. Yeast and mold were tested at an additional timepoint of at least 400% of the minimum disinfection time. The suspension was mixed well by vortexing vigorously for at least 5 second. The 1.0 mL aliquots removed at the specified time intervals were subjected to a suitable series of decimal dilutions in validated neutralizing media. The suspensions were mixed vigorously and incubated for a suitable period of time to allow for neutralization of the microbial agent. The viable count of organisms was determined in appropriate dilutions by preparation of triplicate plates of trypticase soy (TSA) agar for bacteria and Sabouraud dextrose agar (SDA) for mold and yeast. The bacterial recovery plates were incubated at 30-35° C. for 2-4 days. The yeast was incubated at 20-30° C. for 2-4 days and mold recovery plates at 20-25° C. for 3-7 days. The average number of colony forming units was determined on countable plates. Countable plates refer to 30-300 cfu/plates for bacteria and yeast, and 8 to 80 cfu/plate for mold except when colonies are observed only for the 10^0 or 10^-1 dilution plates. The microbial reduction was then calculated at the specified time points. […] Following inoculation in a validated neutralizing broth and incubation for an appropriate period of time, the inoculum control must be between 1.0×10^5 -1.0×10^6 cfu/mL
The solutions were evaluated based on the performance requirement referred to as the "Stand-Alone Procedure for Disinfecting Products" (hereafter the "stand-alone test") and is based on the Disinfection Efficacy Testing for contact lens care products under the Draft Premarket Notification (510(k)) Guidance Document For Contact Lens Care Products dated Apr. 1, 1996, prepared by the U.S. Food and Drug Administration, Division of Ophthalmic Devices. […]

Structure (SMILES): CCCCC(CC)CNC(=N)NC(=N)NCCCCCCNC(=N)NC(=N)NCC(CC)CCCC.Cl.Cl (centres unmarked) [Alexidine.2HCl, 1,1 '-hexamethylenebis(5-(2-ethylhexyl)-biguanide) dihydrochloride]
- Log Reduction (4.0 ppm, Ex. 8, different batch aged 19 months at 25 °C, 15 min, dihydrochloride): < 1 log
- log reduction at 4 ppm (ATCC10231, 2.5 min, 4.0 ppm, aged 18 months, Exp. 1, 2.5 min, read-out: Log Reduction): 0
- log reduction at 4 ppm (ATCC10231, 2.5 min, 4.0 ppm, aged 18 months, Exp. 2, 2.5 min, read-out: Log Reduction): 0.1
- log reduction at 4 ppm (ATCC10231, 2.5 min, 4.0 ppm, aged 18 months, Exp. 3, 2.5 min, read-out: Log Reduction): 0
- log reduction at 4 ppm (ATCC10231, 5 min, 4.0 ppm, aged 18 months, Exp. 1, 5.0 min, read-out: Log Reduction): 0
- log reduction at 4 ppm (ATCC10231, 5 min, 4.0 ppm, aged 18 months, Exp. 2, 5.0 min, read-out: Log Reduction): 0.1
- log reduction at 4 ppm (ATCC10231, 5 min, 4.0 ppm, aged 18 months, Exp. 3, 5.0 min, read-out: Log Reduction): 0
- log reduction at 4 ppm (ATCC10231, 0.125 h, 4.0 ppm, aged 18 months, Exp. 1, 7.5 min, read-out: Log Reduction): 0.6
- log reduction at 4 ppm (ATCC10231, 0.125 h, 4.0 ppm, aged 18 months, Exp. 2, 7.5 min, read-out: Log Reduction): 0.5
- log reduction at 4 ppm (ATCC10231, 0.125 h, 4.0 ppm, aged 18 months, Exp. 3, 7.5 min, read-out: Log Reduction): 0.4
- log reduction at 4 ppm (ATCC10231, 10 min, 4.0 ppm, aged 18 months, Exp. 1, 10.0 min, read-out: Log Reduction): 0.7
- log reduction at 4 ppm (ATCC10231, 10 min, 4.0 ppm, aged 18 months, Exp. 2, 10.0 min, read-out: Log Reduction): 0.6
- log reduction at 4 ppm (ATCC10231, 10 min, 4.0 ppm, aged 18 months, Exp. 3, 10.0 min, read-out: Log Reduction): 0.4
- log reduction at 4 ppm (ATCC10231, 0.25 h, 4.0 ppm, Ex. 6, aged 19 months at 25 °C, 15 min): 1.9
- log reduction at 4 ppm (ATCC10231, 0.25 h, 4.0 ppm, Ex. 7, different lot aged 18 months, 15 min, read-out: Log Reduction): 1
- log reduction at 4 ppm (ATCC10231, 0.25 h, 4.0 ppm, Ex. 8, different batch aged 19 months at 25 °C, 15 min, read-out: Log Reduction): 0.9
- log reduction at 4 ppm (ATCC10231, 0.5 h, 4.0 ppm, Ex. 6, aged 19 months at 25 °C, 30 min, read-out: Log Reduction): 2.5
- log reduction at 4 ppm (ATCC10231, 0.5 h, 4.0 ppm, Ex. 7, different lot aged 18 months, 30 min, read-out: Log Reduction): 1.7
- log reduction at 4 ppm (ATCC10231, 0.5 h, 4.0 ppm, Ex. 8, different batch aged 19 months at 25 °C, 30 min, read-out: Log Reduction): 1.7
- log reduction at 4 ppm (ATCC10231, 40 min, 4.0 ppm, aged 18 months, Exp. 1, 40.0 min, read-out: Log Reduction): 2.1
- log reduction at 4 ppm (ATCC10231, 40 min, 4.0 ppm, aged 18 months, Exp. 2, 40.0 min, read-out: Log Reduction): 1
- log reduction at 4 ppm (ATCC10231, 40 min, 4.0 ppm, aged 18 months, Exp. 3, 40.0 min, read-out: Log Reduction): 1
- log reduction at 4 ppm (ATCC10231, 0.75 h, 4.0 ppm, Ex. 6, aged 19 months at 25 °C, 45 min): 2.7
- log reduction at 4 ppm (ATCC10231, 0.75 h, 4.0 ppm, Ex. 7, different lot aged 18 months, 45 min, read-out: Log Reduction): 1.9
- log reduction at 4 ppm (ATCC10231, 0.75 h, 4.0 ppm, Ex. 8, different batch aged 19 months at 25 °C, 45 min): 1.8
- log reduction at 4 µg/mL (ATCC10231, 1 h, 1 hr): 2.9
- log reduction at 4 ppm (ATCC10231, 1 h, 4.0 ppm, Ex. 6, aged 19 months at 25 °C, 60 min, read-out: Log Reduction): 2.8
- log reduction at 4 ppm (ATCC10231, 1 h, 4.0 ppm, Ex. 7, different lot aged 18 months, 60 min, read-out: Log Reduction): 2.1
- log reduction at 4 ppm (ATCC10231, 1 h, 4.0 ppm, Ex. 8, different batch aged 19 months at 25 °C, 60 min, read-out: Log Reduction): 1.9
- log reduction at 4 µg/mL (ATCC10231, 2 h, 2 hr): 4.3
- log reduction at 4 µg/mL (ATCC10231, 3 h, 3 hr): > 4.7
- log reduction at 4 µg/mL (ATCC10231, 4 h, 4 hr): 3.9
- log reduction at 4 ppm (ATCC10231, 4 h, 4.0 ppm, Ex. 6, aged 19 months at 25 °C, 4 h, read-out: Log Reduction): 3.4
- log reduction at 4 ppm (ATCC10231, 4 h, 4.0 ppm, Ex. 7, different lot aged 18 months, 4 hrs): 3.1
- log reduction at 4 ppm (ATCC10231, 4 h, 4.0 ppm, Ex. 8, different batch aged 19 months at 25 °C, 4 hrs, read-out: Log Reduction): 2.6
- log reduction at 4 µg/mL (ATCC10231, 24 h, 24 hr): 4.6
- Log Reduction C. albicans (alexidine 0.5 ppm, 5 min): 0.3 log
- Log Reduction C. albicans (alexidine 0.5 ppm, 15 min): 1.0 log
- Log Reduction C. albicans (alexidine 0.5 ppm, 30 min): -0.2 log
- Log Reduction C. albicans (alexidine 0.5 ppm, 60 min): -0.1 log
- Log Reduction C. albicans (alexidine 2.6 ppm, 5 min): 0.4 log
- Log Reduction C. albicans (alexidine 2.6 ppm, 15 min): 0.5 log
- Log Reduction C. albicans (alexidine 2.6 ppm, 30 min): 0.5 log
- Log Reduction C. albicans (alexidine 2.6 ppm, 60 min): 1.4 log
